In test [1] the target is T1, hMOR (Homo sapiens, UniProt P35372).
T1 construct: expressed in transfected cells; host or cells: HEK 293T (ATCC CRL-11268), transient
Description: cell-based. Type of test: cell-based. Conditions: for Emax: HEK-293T, read-out: Gi Emax hMOR.

The target in test [2] is T1, hMOR. Description: Tango β-arrestin recruitment assay, hMOR. Format: cell-based.
In test [3] the target is T2, hKOR (Homo sapiens, UniProt P41145).
T2 construct: expressed in transfected cells; host or cells: HEK 293T (ATCC CRL-11268), transient
In words: cAMP inhibition assay (GloSensor, HEK 293T), hKOR. Format: cell-based. The following applies: for Emax: HEK-293T, read-out: Gi Emax hKOR; for Gi pEC50±SEM hKOR / EC50: cAMP inhibition; for Bias factor toward G protein, hKOR: cAMP inhibition vs Tango, against U50,488H as control; for EC50: read-out: Gi EC50 hKOR.

The target in test [4] is T2, hKOR. In words: Tango β-arrestin recruitment assay, hKOR. Type of test: cell-based. The following applies: for Arrestin pEC50±SEM hKOR / EC50: Tango, WT-hKOR.
Test [5] has as its target T3, mMOR (Mus musculus, UniProt P42866).
T3 construct: expressed in transfected cells
Description: Radioligand competition binding ([125I]IBNtxA), CHO membranes, mMOR. Conditions: vs 125IBNtxA (0.1 nM), mean ± SEM. On the technique in general: In a radioligand displacement assay an active substance lowers the binding of a labelled ligand.

Test [6] addresses T4, mKOR (Mus musculus, UniProt P33534).
T4 construct: expressed in transfected cells
In words: Radioligand competition binding ([125I]IBNtxA), CHO membranes, mKOR. Conditions: vs 125IBNtxA (0.1 nM), mean ± SEM.

For test [7], the target named is T5, mDOR (Mus musculus, UniProt P32300).
T5 construct: expressed in transfected cells
Description: Radioligand competition binding ([125I]IBNtxA), CHO membranes, mDOR. Conditions: vs 125IBNtxA (0.1 nM), CHO membranes, mean ± SEM.

For test [8], the target named is T3, mMOR. Description: [35S]GTPγS functional assay, mMOR. Type of test: biochemical. (In general: Binding of GTPγS marks nucleotide exchange on a G protein.)
Test [9] addresses T4, mKOR. Description: [35S]GTPγS functional assay, mKOR. Format: biochemical.
The target of test [10] is T5, mDOR. Description: [35S]GTPγS functional assay, mDOR. Format: biochemical.
Test [11] has as its target T6, mouse mu opioid receptor (mMOR) (Mus musculus, UniProt P42866).
T6 construct: expressed in transfected cells; host or cells: HEK-293T, transient (PEI), with BRET sensor cDNAs
In words: cell-based. Type of test: cell-based. The following applies: for Emax: read-out: Gi Emax mMOR.

Test [12] deals with T6, mouse mu opioid receptor (mMOR). In words: cell-based. Type of test: cell-based.
The target of test [13] is T7, rat kappa opioid receptor (rKOR) (Rattus norvegicus, UniProt P34975).
T7 construct: expressed in transfected cells; host or cells: HEK-293T, transient (PEI), with BRET sensor cDNAs
Description: BRET assay, G-protein activation, rKOR. Format: cell-based. The following applies: for Emax: read-out: Gi Emax rKOR.

The target in test [14] is T7, rat kappa opioid receptor (rKOR). Description: BRET assay, arrestin recruitment, rKOR. Format: cell-based.
The target of test [15] is T8, mouse delta opioid receptor (mDOR) (Mus musculus, UniProt P32300).
T8 construct: expressed in transfected cells; host or cells: HEK-293T, transient (PEI), with BRET sensor cDNAs
Description: BRET assay, G-protein activation, mDOR. Type of test: cell-based. The following applies: for Emax: read-out: G-Protein activation Emax % ± SEM. On the technique in general: BRET reads energy transfer from a luciferase to a nearby fluorophore.

Test [16] deals with T9, hDOR (Homo sapiens, UniProt P41143). In words: cAMP inhibition assay, hDOR. Further details: expressed in transfected cells. The following applies: for Emax: read-out: cAMP inhibition Emax % ± SEM. Type of test: cell-based.
Test [17] deals with T9, hDOR. In words: Tango β-arrestin recruitment assay, hDOR. Format: cell-based. Further details: expressed in transfected cells; host or cells: HTLA cells expressing TEV fused-beta-Arrestin2. Conditions: for Emax: read-out: Arrestin recruitment Emax % ± SEM.
In test [18] the target is T8, mouse delta opioid receptor (mDOR). In words: BRET assay, arrestin recruitment, mDOR. Type of test: cell-based.
Test [19] has as its target T10, Y312W-hKOR (Homo sapiens, UniProt P41145, Y312W). In words: Tango-arrestin recruitment assay, Y312W-hKOR mutant. Type of test: cell-based. Further details: expressed in transfected cells.
In test [20] the target is T10, Y312W-hKOR. In words: cAMP inhibition assay, Y312W-hKOR mutant. Type of test: cell-based. Further details: expressed in transfected cells; host or cells: HEK 293T (inferred from the general cAMP method).

Where “and” joins values, the source holds several entries; their conditions need not be identical. Identical values can stand only once. Entries after “also recorded” stand apart in the source; their conditions may differ. Like-named read-outs stand apart in the source and are kept apart here.

For orientation: Emax means the maximal effect, on the per cent scale that the assay sets. Consider `NCc1ccc(C(=O)N[C@@H]2CC[C@H]3[C@H]4Cc5ccc(O)c6c5[C@@]3(CCN4CC3CC3)[C@H]2O6)cc1` [MP1209, 4-(aminomethyl)-N-((4R,4aR,7R,7aR,12bS)-3-(cyclopropylmethyl)-9-hydroxy-2,3,4,4a,5,6,7,7a-octahydro-1H-4,12-methano[1]benzofuro[3,2-e]isoquinolin-7-yl)benzamide], for which, at hMOR [1], the “Gi pEC50±SEM hMOR” value is on record as 9.61±0.04 and the Emax was 98.5 ± 0.96%. Further, at hMOR [1] (read-out: Gi EC50 hMOR), the EC50 was 0.25 nM. Besides, on hMOR [2] (Tango), the “arrestin recruitment at hMOR” value was “null arrestin recruitment; also recorded: no arrestin recruitment was observed”. Besides, at hKOR [3], the Emax is 100 ± 1.23%; the “Gi pEC50±SEM hKOR” value is given as 10.6±0.05; the “Bias factor toward G protein, hKOR” value was determined as 0.6; the EC50 is 0.024 nM. At hKOR [4], the Emax was 67 ± 3%, the “Arrestin pEC50±SEM hKOR” value is 9.43±0.19 and the EC50 is 0.37 nM.
One may read the Ki as a measure of affinity in units of concentration, obtained from inhibition or displacement. Read a high Ki as a looser hold on the target. In the case of `CO[C@@]12CC[C@@H](NC(=O)c3cccc(I)c3)C3Oc4c(O)ccc5c4[C@@]31CCN(CC1CC1)C2C5` (stereo partly drawn) [MP1305, N-((4aS,7R,12bS)-3-(Cyclopropylmethyl)-9-hydroxy-4a-methoxy-2,3,4,4a,5,6,7,7a-octahydro-1H-4,12-methanobenzofuro[3,2-e]isoquinolin-7-yl)-3-iodobenzamide], the values for the Ki at mMOR [5], at mKOR [6] and on mDOR [7] were 0.25 ± 0.02 nM, 2.5 ± 0.3 nM and 11.7 ± 1.4 nM, respectively. Besides, the Emax stood at 81.2 ± 16% on mMOR [8]; 42.2 ± 5.3% on mKOR [9]; 22 ± 0.9% on mDOR [10]; 69 ± 1.8% at hMOR [1]; 21 ± 3% on hMOR [2]; 102 ± 1.2% on hKOR [3]. Moreover, the Emax on hKOR [4] worked out at 75 ± 1%; in [11], 72 ± 2%; in test [13] it was 35 ± 3%; in [15], 105 ± 5.9%; on hDOR [16] it was 71 ± 2.4%; on hDOR [17] it was 89 ± 2.8%. In addition, the EC50 on mMOR [8] ([35S]GTPγS, nM ± SEM) was found to be 0.7 ± 0.1 nM; on mKOR [9] ([35S]GTPγS, nM ± SEM) it was 7.4 ± 1.8 nM; on mDOR [10] ([35S]GTPγS, nM ± SEM) it was 31.7 ± 3.6 nM; at hMOR [1] (read-out: Gi EC50 hMOR) it was 0.12 nM; on hMOR [2] (Tango), 16.4 nM; at hKOR [4], 25.7 nM. Further, the EC50 in [11] (read-out: Gi EC50 mMOR) came to 0.74 nM; in test [15] (mDOR, BRET) it was 40.4 nM; on hDOR [16] (hDOR) it was 74.2 nM; at hDOR [17] (hDOR, Tango) it was 228 nM. Besides, the “Bias factor toward G protein, hMOR” value on hMOR [1] is given as 11. Further, the “Gi pEC50±SEM hMOR” value at hMOR [1] turned out to be 9.9±0.12. Moreover, the “Arrestin pEC50±SEM hMOR” value on hMOR [2] (Tango) worked out at 7.8±0.3. Moreover, the “Gi pEC50±SEM hKOR” value at hKOR [3] is given as 9.14±0.05. Besides, at hKOR [3], the “Bias factor toward G protein, hKOR” value was 4. In addition, on hKOR [4], the “Arrestin pEC50±SEM hKOR” value was 7.6±0.04. Moreover, the “Gi pEC50±SEM mMOR” value in [11] is listed as 9.1±0.12. In addition, in [12], the “arrestin recruitment at mMOR” value was “no arrestin recruitment was observed”. The “Gi pEC50±SEM rKOR” value in [13] (BRET) was 8.3±0.32. Further, in test [14] (BRET), the “arrestin recruitment at rKOR” value is recorded as “no arrestin recruitment was observed”. Further, in test [15] (mDOR, BRET), the “G-Protein activation pEC50 ± SEM” value turned out to be 7.4 ± 0.20. Moreover, on hDOR [16] (hDOR), the “cAMP inhibition pEC50 ± SEM” value is reported as 7.1 ± 0.08. Also, the “Arrestin recruitment pEC50 ± SEM” value at hDOR [17] (hDOR, Tango) was 6.6 ± 0.06.
`O=C(N[C@@H]1CCC2C3Cc4ccc(O)c5c4C2(CCN3CC2CC2)C1O5)c1cccc(I)c1` (stereo partly drawn) [MP1202, N-((7R,1265)-3-(Cyclopropylmethyl)-9-hydroxy-2,3,4,4a,5,6,7,7a-octahydro-1H-4,12-methanobenzofuro[3,2-e]isoquinolin-7-yl)-3-iodobenzamide]: the Emax amounted to 68 ± 1% on mMOR [8]; 94 ± 5% on mKOR [9]; 71 ± 2% at mDOR [10]; 92 ± 1.4% at hMOR [1]; 53 ± 2% on hMOR [2]; 110 ± 1% on hKOR [3]. The Emax on hKOR [4] is 101 ± 1%; in test [11] it was 61 ± 1.5%; in [12] (read-out: Arrestin Emax mMOR), 53 ± 1.6%; in [13] it was 104 ± 2%; in test [14], 77 ± 5%; in test [15], 103 ± 4.6%. Besides, the Emax in test [18] (read-out: Arrestin recruitment Emax % ± SEM) is 26 ± 2.3%; at hDOR [16] it was 99 ± 2.2%; on Y312W-hKOR [19], 55 ± 2.6%; on hDOR [17] it was 26 ± 3.1%; at Y312W-hKOR [20] (read-out: Gi Emax Y312W-hKOR), 101 ± 1.5%. Besides, at hMOR [1], the “Bias factor toward G protein, hMOR” value worked out at 31. Further, the EC50 at hMOR [1] amounted to 0.077 nM; on hMOR [2] (Tango), 26.8 nM; on hKOR [3] it was 0.0016 nM; at hKOR [4], 0.0457 nM; in test [13] (BRET, read-out: Gi EC50 rKOR), 0.134 nM; in test [14] (BRET), 1.44 nM. In addition, the EC50 is 525 nM in test [18] (mDOR, BRET); 8.18 nM on hDOR [16] (hDOR); 3.4 nM on Y312W-hKOR [19] (Tango); 18.1 nM on hDOR [17] (hDOR, Tango); 0.0204 nM on Y312W-hKOR [20] (cAMP inhibition, read-out: Gi pEC50±SEM Y312W-hKOR (converted)). Besides, the “Bias factor toward G protein, hKOR” value at hKOR [3] is listed as 0.6. Further, the “Bias factor toward G-protein, mMOR” value in test [11] came to 58. In addition, in [13] (BRET assays, against U50,488H as control), the “Bias factor toward G-protein, rKOR” value is 0.39 and 0.4. For the same molecule, the “arrestin recruitment at Y312W-hKOR” value at Y312W-hKOR [19] (Tango, compared with wild-type KOR) is “reduced arrestin recruitment”. For the same molecule, the “Bias factor toward G-protein, Y312W-hKOR” value at Y312W-hKOR [20] (cAMP inhibition vs Tango, against U50,488H as control) is 33 and 34.
On to `O=C(N[C@@H]1CC[C@H]2[C@H]3Cc4ccc(O)c5c4[C@@]2(CCN3CC2CC2)[C@H]1O5)c1cccc(CO)c1` [MP1210, N-((4R,4aR,7R,7aR,12bS)-3-(cyclopropylmethyl)-9-hydroxy-2,3,4,4a,5,6,7,7a-octahydro-1H-4,12-methano[1]benzofuro[3,2-e]isoquinolin-7-yl)-3-(hydroxymethyl)benzamide], for which, on hMOR [1], the “Gi pEC50±SEM hMOR” value was found to be 9.81±0.05 and the Emax worked out at 94.6 ± 0.98%. The EC50 on hMOR [1] (read-out: Gi EC50 hMOR) turned out to be 0.15 nM. In addition, the “arrestin recruitment at hMOR” value on hMOR [2] (Tango) was “null arrestin recruitment; also recorded: no arrestin recruitment was observed”. Also, at hKOR [3], the Emax worked out at 101 ± 1.1%; the “Gi pEC50±SEM hKOR” value was 10.6±0.05; the “Bias factor toward G protein, hKOR” value came out at 1.2. On hKOR [4], the Emax was determined as 63 ± 3.3% and the “Arrestin pEC50±SEM hKOR” value is reported as 8.94±0.17.

These data come from patent US11613547B2 (priority 2019, dated 2023).
